Two compounds from US20090093521A1, “2, 5-Bis-Diamine [1,4] Benzoquinone-Derivatives” (priority 2005, published 2009) can be followed below.

In general, IC50 refers to the concentration that inhibits the measured activity by half. Read a low IC50 as greater potency.

One assay deals with AChE (Homo sapiens, UniProt P22303). Format: biochemical. The following applies: for IC50: Ellman method, saturating substrate (acetylthiocholine), absorbance at 412 nm; for Selectivity IC50 (BuChE)/IC50 (AchE): ratio of IC50 (BuChE) to IC50 (AChE), preference for AChE over BuChE. (In Ellman's method for cholinesterases, released thiocholine reacts with DTNB.)
The next assay has as its target BuChE (Homo sapiens, UniProt P06276). Kind of assay: biochemical. The class given is biochemical. Conditions: Ellman method, saturating substrate, absorbance at 412 nm.

AChE, sequence (P22303 32-614): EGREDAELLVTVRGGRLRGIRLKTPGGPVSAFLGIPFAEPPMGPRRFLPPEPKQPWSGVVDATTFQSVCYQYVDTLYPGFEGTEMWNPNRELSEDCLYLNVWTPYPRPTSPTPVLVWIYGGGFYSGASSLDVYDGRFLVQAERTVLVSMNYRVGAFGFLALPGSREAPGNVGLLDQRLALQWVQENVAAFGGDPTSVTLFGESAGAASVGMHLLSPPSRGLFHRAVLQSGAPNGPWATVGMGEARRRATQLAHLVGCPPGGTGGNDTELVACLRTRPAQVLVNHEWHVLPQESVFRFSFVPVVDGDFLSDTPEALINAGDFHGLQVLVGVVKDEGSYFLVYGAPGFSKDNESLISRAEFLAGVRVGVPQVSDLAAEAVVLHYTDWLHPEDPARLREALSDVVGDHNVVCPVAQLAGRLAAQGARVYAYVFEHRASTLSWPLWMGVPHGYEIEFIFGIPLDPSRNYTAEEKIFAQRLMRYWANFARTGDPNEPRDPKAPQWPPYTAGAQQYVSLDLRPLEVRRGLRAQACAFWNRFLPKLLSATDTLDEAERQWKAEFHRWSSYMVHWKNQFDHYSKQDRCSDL
BuChE, sequence (P06276 29-602): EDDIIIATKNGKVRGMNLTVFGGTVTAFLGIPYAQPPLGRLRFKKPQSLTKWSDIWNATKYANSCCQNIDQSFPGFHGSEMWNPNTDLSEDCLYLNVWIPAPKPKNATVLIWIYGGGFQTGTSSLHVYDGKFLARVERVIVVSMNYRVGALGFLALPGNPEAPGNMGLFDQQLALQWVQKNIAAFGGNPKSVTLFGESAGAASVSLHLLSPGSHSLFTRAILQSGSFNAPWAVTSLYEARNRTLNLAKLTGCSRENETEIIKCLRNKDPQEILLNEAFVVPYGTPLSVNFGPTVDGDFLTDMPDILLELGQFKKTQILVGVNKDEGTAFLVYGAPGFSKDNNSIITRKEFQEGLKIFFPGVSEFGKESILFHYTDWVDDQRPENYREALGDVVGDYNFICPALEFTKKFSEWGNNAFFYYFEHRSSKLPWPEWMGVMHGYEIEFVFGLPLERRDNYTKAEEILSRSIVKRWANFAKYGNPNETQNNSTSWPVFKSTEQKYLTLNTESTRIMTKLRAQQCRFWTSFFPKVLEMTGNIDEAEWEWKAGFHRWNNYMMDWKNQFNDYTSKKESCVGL

Regarding `CCN(CCCCCCNC1=C(F)C(=O)C(NCCCCCCN(CC)Cc2ccccc2OC)=C(F)C1=O)Cc1ccccc1OC` [Compound 35, 2,5-bis-{6-[ethyl-(2-methoxy-benzyl)-amine]-hexylamine}-3,6-difluorine-[1,4]benzoquinone], at AChE, the midpoint of inhibition, the IC50, lay at 5.17 ± 0.17 nM and the “Selectivity IC50 (BuChE)/IC50 (AchE)” value is given as 294. The compound also came in with an IC50 against BuChE of 1520 ± 90 nM.
On to `CCN(CCCCCCNC1=C(Br)C(=O)C(NCCCCCCN(CC)Cc2ccccc2OC)=C(Br)C1=O)Cc1ccccc1OC` [Compound 36, 2,5-bis-{6-[ethyl-(2-methoxy-benzyl)-amine]-hexylamine}-3,6-dibromine-[1,4]benzoquinone], for which the IC50 against AChE stood at 2.66 ± 0.19 nM; on BuChE it was 800 ± 62 nM. At AChE, the “Selectivity IC50 (BuChE)/IC50 (AchE)” value came out at 300.
